# From patent US9822104B2, “Taxifolin derivative with superior antioxidant effect and cosmetic composition containing the same” (Yeomyung Biochem Co., Ltd, priority 2015, dated 2017)
# Experiments:
# [1] = DPPH radical scavenging assay; format: biochemical; details: for Antioxidative activity (IC50 mg/mL): DPPH radical scavenging, absorbance at 517 nm, reacted in the dark one hour, repeated three times, Table 1; for IC50 of DPPH radical scavenging activity: FIGS. 15A and 15B
# Experimental: The antioxidant effect of synthesized taxifolin derivative was measured using a DPPH(1,1-diphenyl-2-picrylhydrazyl) radical (Blois M S. 1958. Antioxidant determination by the use of a stable free radical. Nature 25: 1199-1120). For measurement, different concentrations of 0.1 mL of the synthesized taxifolin derivatives were prepared and then mixed with 2.5 mL of ethanol. 0.5 mL of a 0.2 mM DPPH solution was added to the resulting mixture and reacted in the dark for one hour. Then, the absorbance of the reaction product was measured at 517 nm using a UV/Vis-spectrophotometer (BIO-RAD, USA). All tests were repeated three times, methanol was used as a blank sample and DPPH radical effect was calculated in accordance with the following Equation 1. DPPH radical scavenging activity was represented by IC50 (the concentration required for 50% inhibition). Scavenging effect (%)=(A−B)/A×100 [Equation 1]
# where A=absorbance at 517 nm without test sample
# where B=absorbance at 517 nm with test sample
# [2] = FRAP assay (ferric reducing ability); format: biochemical; details: for FRAP value: 37° C. for 10 minutes, absorbance at 593 nm, FeSO4 calibration, ascorbic acid control at 1 mg/mL, Table 2
# Experimental: FRAP assay of the samples was conducted by slightly modifying the method of Benzie and Strain (Benzie I F F, Strain J J. 1996. The ferric reducing ability of plasma (FRAP) as a measure of “Antioxidant power”: The FRAP assay. Anal Biochem 230: 70-79). The FRAP reagent was prepared by heating 25 mL acetate buffer (300 mM, pH 3.6) at 37′ C and adding a solution of 5 mL of 10 mM 2,4,6-tris(2-pyridyl)-s-triazine (TPTZ, Sigma) and 2.5 mL of 20 mM […] in 40 mM HCl thereto. 0.03 mL of the sample (Example 1 or Example 2) and 0.09 mL of distilled water were added to 0.9 mL of the prepared FRAP reagent, reaction was proceeded at 37° C. for 10 minutes and absorbance at 593 nm was measured using a spectrophotometer (Benchmark PLUS Bio-Rad). Distilled water, instead of the sample, was used as the blank. 1 mg/mL of ascorbic acid was used as a control group. A calibration equation for FeSO4 made by repetition at different concentrations of 0.125, 0.25, 0.5, 1 and 2 mM was obtained and measurement values of the samples were converted to FRAP values by applying the measurement values thereto. All measurements were repeated three times.
Antioxidative activity (IC50 mg/mL) [1] [mg/mL],IC50 of DPPH radical scavenging activity [1],IC50 of DPPH radical scavenging activity ([1]; listed as Example 2),Compound,FRAP value [2] [mM],"FRAP value, ranking in words ([2]; FIG. 16, comparison among the samples)"
515.77 ± 5.41,about 250 mg/ml,,O=C(O)CCCC[C@@H]1CCSS1 (racemic) [Lipoic acid],1.14 ± 0.019,
,,,"O=C1O[C@H]([C@@H](O)CO)C(O)=C1O [Ascorbic acid, ascorbic acid]",3.7 ± 0.007,
,"about 2,000 mg/ml",,"CC1(C)SCCC(CCCCC(=O)O)S1 (stereo not drawn) [Lipoic acid (dithiol protection), 5-(2,2-dimethyl-1,3-dithian-4-yl)pentanoic acid]",0.74 ± 0.006,
3.22 ± 0.05,,,OCCCCCC1CCSS1 (stereo not drawn) [Lipoic alcohol],1.24 ± 0.007,
,220 ± 3 µg/mL,very low IC50,"O=C(CCCCC1CCSS1)Oc1cc(OC(=O)CCCCC2CCSS2)c2c(c1)OC(c1ccc(OC(=O)CCCCC3CCSS3)c(OC(=O)CCCCC3CCSS3)c1)C(OC(=O)CCCCC1CCSS1)C2=O (stereo not drawn) [Taxifolin penta lipoate, 2-(3,4-bis(5-(1,2-dithiolan-3-yl)pentanoyloxy)phenyl)-4-oxochroman-3,5,7-triyl tris(5-(1,2-dithiolan-3-yl)pentanoate)]",3.57 ± 0.146,next highest value
